In test [1] the target is T1, endogenous full-length progesterone receptor (Homo sapiens, UniProt P06401).
T1 sequence (P06401 1-933): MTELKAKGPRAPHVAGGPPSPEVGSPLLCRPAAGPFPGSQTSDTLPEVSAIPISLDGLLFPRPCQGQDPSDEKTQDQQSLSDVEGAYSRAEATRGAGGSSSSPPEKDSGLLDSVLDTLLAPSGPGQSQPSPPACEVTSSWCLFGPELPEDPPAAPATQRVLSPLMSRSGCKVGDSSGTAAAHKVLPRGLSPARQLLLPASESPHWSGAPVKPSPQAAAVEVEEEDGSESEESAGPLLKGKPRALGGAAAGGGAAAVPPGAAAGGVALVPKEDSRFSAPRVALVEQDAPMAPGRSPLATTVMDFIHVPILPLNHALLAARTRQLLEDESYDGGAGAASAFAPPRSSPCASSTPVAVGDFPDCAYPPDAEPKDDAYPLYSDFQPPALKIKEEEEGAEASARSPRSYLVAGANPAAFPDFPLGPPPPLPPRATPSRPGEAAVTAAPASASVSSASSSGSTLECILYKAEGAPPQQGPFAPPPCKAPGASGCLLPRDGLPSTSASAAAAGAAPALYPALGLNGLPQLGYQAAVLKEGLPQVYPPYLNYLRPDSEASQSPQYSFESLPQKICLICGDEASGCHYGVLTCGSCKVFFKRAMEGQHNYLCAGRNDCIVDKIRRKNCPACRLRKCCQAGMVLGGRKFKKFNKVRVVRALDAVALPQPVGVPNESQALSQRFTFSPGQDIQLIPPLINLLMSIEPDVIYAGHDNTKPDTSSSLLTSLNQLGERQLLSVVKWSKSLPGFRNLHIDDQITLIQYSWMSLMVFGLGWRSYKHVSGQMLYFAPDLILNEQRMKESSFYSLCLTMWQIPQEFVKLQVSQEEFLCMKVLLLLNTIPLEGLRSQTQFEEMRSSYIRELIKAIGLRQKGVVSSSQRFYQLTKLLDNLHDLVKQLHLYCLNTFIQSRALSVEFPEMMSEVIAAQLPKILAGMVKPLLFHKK
To be noted: Wang et al. 1994; cited from earlier work.

Another test deals with human CNS stem cells. The test is described as follows: Mitotic rate (24-hour BrdU incorporation) and doubling time of human CNS stem cells with growth factors. The test is classed as cell-based. To be noted: N2 medium, factor supplied daily. The protocol: (§1) The doubling time for human CNS stem cells in N2 medium with bFGF as the sole mitogen is approximately 60 hours which is markedly slower than 24 hours for rat CNS stem cells under the identical culture conditions. This may be due to a species difference in certain cell-autonomous properties of the cells such as a difference in DNA replication rate or in other mitotic phases, G1 or G2, of the cell cycle. We investigated other factors to accelerate the mitotic rate of human CNS stem cells.
Many purified recombinant human growth factors were tested for the ability to enhance the mitogenic activity of bFGF. The mitotic rate of human CNS stem cells was assessed by measuring the proportion of the cells which have incorporated the mitotic label, bromodeoxyuridine (BrdU), during a 24-hour period. Each growth factor was supplied daily to the culture in addition to bFGF. Only the combination of bFGF+EGF and bFGF+TGFα (transforming growth factor-alpha) accelerated beyond the bFGF-induced mitotic rate of the human CNS stem cells. In both conditions, the doubling time of the cells […] 1.5 times to 40 hours over bFGF alone. Combination of bFGF and fetal bovine serum at 1% or at 10% also accelerated the BrdU-incorporation rate of bFGF-induced mitotic rate of CNS stem cells to a similar rate. • 2. Resistance of CNS Stem Cells Against Spontaneous Differentiation
Background: Uptake of a labelled nucleoside into DNA is a usual measure of proliferation.

Test [2] concerns MycER-expressing CNS stem cells. Kind of test: Growth of MycER-expressing human CNS stem cells in different mitogens. Format: cell-based. As for the experimental part: The same human CNS stem cell preparation was also subjected to MycER-retrovirus infection and grown in bFGF alone or in bFGF and EGF. […] As with the unmodified parent cells, the MycER cells also retained a 60 hour doubling time in bFGF alone. […] In the absence of MycER expression, the same three conditions yielded a similar pattern of growth, but with less stability.

The subject of the next test is rat CNS stem cells. Kind of test: Doubling time of rat CNS stem cells in N2 medium with bFGF. The test is classed as cell-based. The note with it: bFGF as sole mitogen. As for the experimental part:
as §1

With `CC#C[C@]1(O)CC[C@H]2[C@@H]3CCC4=CC(=O)CCC4=C3[C@@H](c3ccc(N(C)C)cc3)C[C@@]21C` [RU38486], the “activation of full-length receptor” value in test [1] is listed as “does not activate”.

On to “bFGF: basic fibroblast growth factor, mitogen for CNS stem cells”, for which the values for the doubling time result (in the test with human CNS stem cells; in test [2]; in the test with rat CNS stem cells) were “approximately 60 hours”, 60 h and 24 h, respectively.

The values above are taken from patent US9465025B2, “Stable neural stem cell lines” (Neuralstem, Inc., priority 1996, dated 2016).
